Experimental data as given in US10934274B2, “Quinoline derivatives as TAM RTK inhibitors” (Qurient Co., Ltd., priority 2015, dated 2021).

How the values were obtained:
[1] = target: T1, TYRO3 (Homo sapiens, UniProt Q06418); assay: LanthaScreen Eu kinase binding assay, TYRO3; details: Tracer 236
T1 construct: purchased Life Technologies
T1 sequence (Q06418 41-890): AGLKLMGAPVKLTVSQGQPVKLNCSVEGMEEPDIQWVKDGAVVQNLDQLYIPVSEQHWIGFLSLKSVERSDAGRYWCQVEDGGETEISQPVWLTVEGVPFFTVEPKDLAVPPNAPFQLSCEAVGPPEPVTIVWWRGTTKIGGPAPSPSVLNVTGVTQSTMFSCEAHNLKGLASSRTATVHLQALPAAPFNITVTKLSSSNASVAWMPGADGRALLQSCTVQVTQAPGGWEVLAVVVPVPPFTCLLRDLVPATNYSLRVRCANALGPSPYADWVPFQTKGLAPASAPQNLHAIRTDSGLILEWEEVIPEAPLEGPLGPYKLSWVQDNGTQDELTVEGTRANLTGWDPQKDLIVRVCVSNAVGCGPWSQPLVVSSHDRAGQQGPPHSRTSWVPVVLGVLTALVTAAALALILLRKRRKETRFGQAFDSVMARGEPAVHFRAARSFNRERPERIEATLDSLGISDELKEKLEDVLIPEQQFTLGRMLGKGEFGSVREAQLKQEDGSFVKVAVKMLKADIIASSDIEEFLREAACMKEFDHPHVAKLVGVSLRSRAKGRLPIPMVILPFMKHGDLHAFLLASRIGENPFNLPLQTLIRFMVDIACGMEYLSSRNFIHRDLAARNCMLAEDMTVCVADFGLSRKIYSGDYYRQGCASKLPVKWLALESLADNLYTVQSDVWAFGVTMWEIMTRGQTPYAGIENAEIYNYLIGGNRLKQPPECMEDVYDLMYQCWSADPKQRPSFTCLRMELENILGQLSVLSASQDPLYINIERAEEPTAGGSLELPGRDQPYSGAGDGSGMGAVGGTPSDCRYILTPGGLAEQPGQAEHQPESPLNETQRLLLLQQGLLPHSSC

[2] = target: T2, Met (Homo sapiens, UniProt P08581); assay: LanthaScreen Eu kinase binding assay, Met; details: Tracer 236, read-out: cMet kinase binding activity (Kd)
T2 construct: purchased Life Technologies

[3] = tested on: Axl phosphorylation in transiently transfected HEK293T cells; assay: Cellular Axl phosphorylation assay; type: cell-based; details: Homo sapiens, HEK-293T; HEK293T cells transfected with Axl, 1 hour compound treatment, Phospho-Axl vs Total-Axl
Text: Cell AXL Inhibition Assay Principle
The assay is based on the measurement of the relative amounts of Total-Axl and Phosphorylated-Axl in whole cell lysates of transiently transfected HEK293T cells. This assay is based on application of the Mesoscale western blot and subsequent electro-chemiluminescence detection. Overexpression of Axl-RTK (Receptor tyrosine kinase) by transfection leads to an increase in Axl-trans-autophosphorylation events. Upon compound treatment, the correlation of the measured values of Phosphorylated-Axl and Total Axl indicate the potential of the tested compound to inhibit Axl-phosphorylation at the given compound concentration.
Cell AXL Inhibition Assay Protocol
HEK293T cells (2.5×10^4/well) were plated in a 96 well plate and cells were transfected with pcDNA_DEST_40 Axl or pcDNA_DEST_40 by Superfact reagent (Qiagen. Co. Ltd.). After overnight, the transfection reagent of each well was removed from cells and replaced by fresh prewarmed medium. On the following day, cells were treated with the respective test compound which was diluted by the same method, as in the Axl binding assay using DMSO, for 1 hour
After incubation with the test compounds, cells in the well of the plate were lysed using Tris lysis buffer. The lysate was transferred to two plates (total-Axl and phosphor-Axl) Mesoscale high bind plates and incubated for two hours at room temperature. Afterwards the lysates were removed from the plates and the plates were blocked using Blocking buffer. Subsequently Total-Axl antibody (H-124, Santa Cruz) was transferred to one Mesoscale high bind plate, and Phospho-Axl antibody (AF2228, R&D) to the other plate. After 1 h incubation, Sulpho-Tag antibody (goat anti-rabbit, Mesoscale) was added and again incubated for 1 hour. For the measurement, 2×MSD read buffer was added to each well and the plates were analyzed with a Mesoscale Sector Imager 2400. IC50 (half the maximal inhibitory concentration) was determined relative to between the vehicle (DMSO) control group and minimum control group as transfection of the control vector (pcDNA_DEST_40).
The results after this assay are shown in table 3 for selected compounds.

T2 sequence (P08581 25-1390): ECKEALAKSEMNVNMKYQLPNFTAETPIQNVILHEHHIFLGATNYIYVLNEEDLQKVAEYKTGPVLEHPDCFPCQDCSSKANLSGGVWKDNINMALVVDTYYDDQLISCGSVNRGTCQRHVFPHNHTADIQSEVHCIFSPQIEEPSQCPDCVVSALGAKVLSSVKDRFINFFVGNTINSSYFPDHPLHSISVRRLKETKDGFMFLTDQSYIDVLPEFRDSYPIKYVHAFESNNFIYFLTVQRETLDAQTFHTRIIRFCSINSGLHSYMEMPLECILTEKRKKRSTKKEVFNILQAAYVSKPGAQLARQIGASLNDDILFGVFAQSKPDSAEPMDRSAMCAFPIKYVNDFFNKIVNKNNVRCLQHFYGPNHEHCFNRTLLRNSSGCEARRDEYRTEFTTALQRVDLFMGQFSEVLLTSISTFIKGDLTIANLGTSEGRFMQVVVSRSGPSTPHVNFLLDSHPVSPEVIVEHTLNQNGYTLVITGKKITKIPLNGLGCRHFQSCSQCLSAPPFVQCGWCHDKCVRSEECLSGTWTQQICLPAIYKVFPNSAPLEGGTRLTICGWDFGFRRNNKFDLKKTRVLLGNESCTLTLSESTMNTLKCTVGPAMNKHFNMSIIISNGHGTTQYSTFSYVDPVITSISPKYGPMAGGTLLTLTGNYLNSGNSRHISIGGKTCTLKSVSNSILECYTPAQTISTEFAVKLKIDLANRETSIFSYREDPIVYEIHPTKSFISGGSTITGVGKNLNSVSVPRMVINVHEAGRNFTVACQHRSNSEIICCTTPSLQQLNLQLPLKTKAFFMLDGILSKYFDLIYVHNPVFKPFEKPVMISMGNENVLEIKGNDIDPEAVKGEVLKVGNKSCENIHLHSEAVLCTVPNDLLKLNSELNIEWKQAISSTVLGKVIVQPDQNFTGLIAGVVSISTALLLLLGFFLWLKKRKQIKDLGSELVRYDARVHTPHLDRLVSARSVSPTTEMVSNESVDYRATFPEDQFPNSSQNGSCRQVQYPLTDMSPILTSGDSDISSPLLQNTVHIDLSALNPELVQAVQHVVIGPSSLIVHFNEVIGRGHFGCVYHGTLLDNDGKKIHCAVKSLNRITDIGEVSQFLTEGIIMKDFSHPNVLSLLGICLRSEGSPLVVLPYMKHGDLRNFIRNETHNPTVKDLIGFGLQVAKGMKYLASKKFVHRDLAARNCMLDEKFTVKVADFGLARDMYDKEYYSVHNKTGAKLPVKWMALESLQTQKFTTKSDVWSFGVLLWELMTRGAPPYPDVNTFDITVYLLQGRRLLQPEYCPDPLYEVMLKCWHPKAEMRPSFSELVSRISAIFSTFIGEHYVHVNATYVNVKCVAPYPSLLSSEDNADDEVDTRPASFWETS

SMILES | Kd [1] [nM] | Kd [2] [nM] | IC50 [3] [nM]
CCOc1cn(-c2ccc(N)nc2)nc1C(=O)Nc1ccc(Oc2ccnc3cc(OC)c(OC)cc23)cn1 [Compound 6] | < 100 | 100 to 1000 | < 100
CCOc1cn(-c2ccnc(O)c2)nc1C(=O)Nc1ccc(Oc2ccnc3cc(OC)c(OC)cc23)cn1 [Compound 7] | ≥ 1000 | < 100 | ≥ 1000
CCOc1cn(-c2cn[nH]c2)nc1C(=O)Nc1ccc(Oc2ccnc3cc(OC)c(OC)cc23)cn1 [Compound 8] | 100 to 1000 | < 100 | < 100
CCOc1cn(-c2cnc(N)nc2)nc1C(=O)Nc1ccc(Oc2ccnc3cc(OC)c(OC)cc23)cn1 [Compound 10] | < 100 | < 100 | < 100
CCOc1cn(-c2cncn2C)nc1C(=O)Nc1ccc(Oc2ccnc3cc(OC)c(OC)cc23)cn1 [Compound 11] | 100 to 1000 | 100 to 1000 | < 100
CCOc1cn(-c2nccs2)nc1C(=O)Nc1ccc(Oc2ccnc3cc(OC)c(OC)cc23)cn1 [Compound 12] | < 100 | 100 to 1000 | < 100
CCOc1cn(-c2cscn2)nc1C(=O)Nc1ccc(Oc2ccnc3cc(OC)c(OC)cc23)cn1 [Compound 13] | < 100 | < 100 | < 100
CCOc1cn(-c2cncs2)nc1C(=O)Nc1ccc(Oc2ccnc3cc(OC)c(OC)cc23)cn1 [Compound 14] | < 100 | < 100 | < 100
CCOc1cnn(-c2cncs2)c1C(=O)Nc1ccc(Oc2ccnc3cc(OC)c(OC)cc23)cn1 [Compound 16] | 100 to 1000 | 100 to 1000 | 100 to 1000
CCOc1cn(-c2cnc(CO)nc2)nc1C(=O)Nc1ccc(Oc2ccnc3cc(OC)c(OC)cc23)cn1 [Compound 96] | ≥ 1000 | ≥ 1000 | < 100
CCOc1cn(-c2ccc(F)cc2C)nc1C(=O)Nc1ccc(Oc2ccnc3cc(OC)c(OC)cc23)nn1 [Compound 97] | ≥ 1000 | ≥ 1000 | < 100
CCOc1cn(-c2ccc(C(F)(F)F)cc2C)nc1C(=O)Nc1ccc(Oc2ccnc3cc(OC)c(OC)cc23)cn1 [Compound 99] | 100 to 1000 | ≥ 1000 | < 100
CCOc1cn(-c2ccc(C)cc2F)nc1C(=O)Nc1ccc(Oc2ccnc3cc(OC)c(OC)cc23)cn1 [Compound 100] | 100 to 1000 | 100 to 1000 | < 100
CCOc1cn(-c2ccc(Cl)cc2C(F)(F)F)nc1C(=O)Nc1ccc(Oc2ccnc3cc(OC)c(OC)cc23)cn1 [Compound 101] | 100 to 1000 | < 100 | < 100
CCOc1cnn(-c2ccc(C(F)(F)F)cc2C)c1C(=O)Nc1ccc(Oc2ccnc3cc(OC)c(OC)cc23)cn1 [Compound 102] | 100 to 1000 | ≥ 1000 | < 100
CCOc1cn(-c2ccc(F)cc2C(F)(F)F)nc1C(=O)Nc1ccc(Oc2ccnc3cc(OC)c(OC)cc23)cn1 [Compound 104] | < 100 | < 100 | < 100
CCOc1cn(-c2ccc(C(F)(F)F)cc2C(F)(F)F)nc1C(=O)Nc1ccc(Oc2ccnc3cc(OC)c(OC)cc23)cn1 [Compound 105] | 100 to 1000 | < 100 | < 100
CCOc1cn(-c2ccc(Cl)cc2F)nc1C(=O)Nc1ccc(Oc2ccnc3cc(OC)c(OC)cc23)cn1 [Compound 106] | 100 to 1000 | < 100 | < 100
CCOc1cn(-c2ccc(F)cc2F)nc1C(=O)Nc1ccc(Oc2ccnc3cc(OC)c(OC)cc23)cn1 [Compound 107] | < 100 | < 100 | < 100

SMILES | Kd [1] [nM] | Kd [2] [nM] | IC50 [3] [nM]
CCOc1cn(-c2ccc(Cl)cc2Cl)nc1C(=O)Nc1ccc(Oc2ccnc3cc(OC)c(OC)cc23)cn1 [Compound 108] | < 100 | ≥ 1000 | < 100
CCOc1cnn(-c2ccc(C(F)(F)F)cc2C(F)(F)F)c1C(=O)Nc1ccc(Oc2ccnc3cc(OC)c(OC)cc23)cn1 [Compound 110] | 100 to 1000 | < 100 | < 100
CCOc1cn(-c2ccc(Cl)cc2CC)nc1C(=O)Nc1ccc(Oc2ccnc3cc(OC)c(OC)cc23)cn1 [Compound 111] | < 100 | < 100 | < 100
CCOc1cn(-c2ccc(F)cc2CC)nc1C(=O)Nc1ccc(Oc2ccnc3cc(OC)c(OC)cc23)cn1 [Compound 112] | < 100 | < 100 | < 100
CCOc1cn(-c2ccc(OC(F)(F)F)cc2C)nc1C(=O)Nc1ccc(Oc2ccnc3cc(OC)c(OC)cc23)cn1 [Compound 113] | 100 to 1000 | 100 to 1000 | < 100
CCOc1cn(-c2ccc(C(F)(F)F)cc2F)nc1C(=O)Nc1ccc(Oc2ccnc3cc(OC)c(OC)cc23)cn1 [Compound 114] | ≥ 1000 | < 100 | < 100
CCOc1cn(-c2ccc(OC(F)(F)F)cc2Cl)nc1C(=O)Nc1ccc(Oc2ccnc3cc(OC)c(OC)cc23)cn1 [Compound 115] | ≥ 1000 | < 100 | < 100
CCOc1cn(-c2ccc(C(C)C)cc2)nc1C(=O)Nc1ccc(Oc2ccnc3cc(OC)c(OC)cc23)cn1 [Compound 116] | ≥ 1000 | 100 to 1000 | < 100
CCOc1cn(-c2c(C)cc(C)cc2C)nc1C(=O)Nc1ccc(Oc2ccnc3cc(OC)c(OC)cc23)cn1 [Compound 117] | 100 to 1000 | < 100 | < 100
CCOc1cn(-c2ccc(OC(F)(F)F)cc2F)nc1C(=O)Nc1ccc(Oc2ccnc3cc(OC)c(OC)cc23)cn1 [Compound 120] | ≥ 1000 | 100 to 1000 | < 100
CCOc1cn(-c2ccc(F)c(CN(C)C)c2)nc1C(=O)Nc1ccc(Oc2ccnc3cc(OC)c(OC)cc23)cn1 [Compound 124] | < 100 | < 100 | < 100
CCOc1cn(-c2ccc(F)cc2C(C)C)nc1C(=O)Nc1ccc(Oc2ccnc3cc(OC)c(OC)cc23)cn1 [Compound 125] | < 100 | < 100 | < 100
CCOc1cn(-c2ccc(Cl)c(CN(C)C)c2)nc1C(=O)Nc1ccc(Oc2ccnc3cc(OC)c(OC)cc23)cn1 [Compound 126] | ≥ 1000 | < 100 | < 100
CCOc1cn(-c2ccc(C(C)C)cc2F)nc1C(=O)Nc1ccc(Oc2ccnc3cc(OC)c(OC)cc23)cn1 [Compound 127] | ≥ 1000 | < 100 | < 100
CCOc1cn(-c2ccc(F)c(CO)c2)nc1C(=O)Nc1ccc(Oc2ccnc3cc(OC)c(OC)cc23)cn1 [Compound 128] | < 100 | < 100 | < 100
CCOc1cn(-c2ccc(Cl)c(C(=O)N(C)C)c2)nc1C(=O)Nc1ccc(Oc2ccnc3cc(OC)c(OC)cc23)cn1 [Compound 129] | ≥ 1000 | < 100 | < 100
CCOc1cnn(-c2ccc(Cl)c(CN(C)C)c2)c1C(=O)Nc1ccc(Oc2ccnc3cc(OC)c(OC)cc23)cn1 [Compound 130] | 100 to 1000 | < 100 | < 100
CCOc1cn(-c2c(C)ccnc2C)nc1C(=O)Nc1ccc(Oc2ccnc3cc(OC)c(OC)cc23)cn1 [Compound 132] | < 100 | < 100 | < 100
